From ChEMBL document CHEMBL1201862, “PubChem BioAssay data set” (2004) come the findings set out here.

Among the test systems are DMS-114; LXFL 529; DMS-273; RXF 631; HOP-18; SNB-78; DLD-1; M19-MEL; XF498.
What all share (assay): NCI-60 cell line screen, 48 h

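Step 1: Grow cells in 96-well plates. Step 2: Expose to compound for 48 hours at 5 concentrations. Step 3: Interpolate endpoints linearly; if unreached, use highest concentration. GI50 = concentration required for 50% inhibition of growth.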 Activity calls are given as the source filed them. Cut-off read from the data, not from the text of the source: active = GI50 up to about 1.1 µM and inactive = higher.

Turning to `CCCCNCC(=O)O[C@]1(CC)C(=O)OCc2c1cc1n(c2=O)Cc2cc3ccccc3nc2-1`, the GI50 with DMS-114 was 0.121 µM (active); in the assay with LXFL 529, 3.21 µM (inactive); in the assay on DMS-273 it was < 0.01 µM (active); in the assay with RXF 631, 1.7 µM (inactive); with HOP-18, 0.44 µM (active); in the assay with SNB-78 it was 2.43 µM (inactive). For the same compound, the GI50 with DLD-1 was 3.3 µM (inactive); with M19-MEL it was 0.63 µM (active); in the assay with XF498, 0.305 µM (active).

As to `CC1(C)CC(=O)C(C(=O)Nc2cccs2)=C(O)C1`, the GI50 is 31.8 µM (inactive) in the assay on LXFL 529; 25.2 µM (inactive) in the assay with DMS-273; 36.5 µM (inactive) in the assay with RXF 631; 21.6 µM (inactive) in the assay with HOP-18; 36.1 µM (inactive) in the assay on SNB-78; 39.5 µM (inactive) with DLD-1. The GI50 was 41.2 µM (inactive) with M19-MEL and 43 µM (inactive) with XF498.

On to `Cn1ccnc1CCc1ccc(Cl)cc1Cl`, for which the GI50 is 56.8 µM (inactive) with DMS-114; > 100 µM (inactive) with LXFL 529; > 100 µM (inactive) in the assay with DMS-273; > 100 µM (inactive) in the assay with RXF 631; > 100 µM (inactive) in the assay with HOP-18; > 100 µM (inactive) in the assay with SNB-78. In addition, the GI50 in the assay with DLD-1 and in the assay on M19-MEL was > 100 µM (inactive) throughout.

For the compound `CC(=O)O[C@H]1[C@@H]2[C@@H]3[C@@H](C[C@H]1C)[C@@H](C)CO[C@@]1(C)CC/C=C(/C)C[C@@H]2O[C@@H]31`, the GI50 in the assay with DMS-114, with LXFL 529, in the assay on DMS-273, in the assay with RXF 631, in the assay with HOP-18 and in the assay on DLD-1 was > 100 µM (inactive) throughout. In addition, the GI50 in the assay with M19-MEL and with XF498 was > 100 µM (inactive) throughout.

Consider `COC(=O)C1=NC(=S)NC(c2ccccc2)C1c1nc2ccccc2s1` (stereo unspecified), for which the GI50 in the assay on DMS-114, in the assay on LXFL 529, with DMS-273, in the assay on RXF 631, in the assay with HOP-18 and in the assay with SNB-78 was > 100 µM (inactive) throughout. The GI50 in the assay on DLD-1 and with M19-MEL was > 100 µM (inactive) each time.
